From ChEMBL document CHEMBL4354790, “Tailored therapeutics based on 1,2,3-1H-triazoles: a mini review” (Medchemcomm, 2019) come the findings set out here.

The target of experiment [1] is Signal transducer and activator of transcription 3 (Homo sapiens, UniProt P40763). Put plainly: Inhibition of STAT3 (unknown origin).
Experiment [2] concerns the target Protease (Human immunodeficiency virus 1, UniProt Q9YQ12, V82F). The experiment can be described thus: Inhibition of HIV-1 protease V82F mutant.
Experiment [3] concerns the target Protease (Human immunodeficiency virus 1, UniProt Q9YQ12). Put plainly: Inhibition of HIV-1 protease.
Experiment [4] addresses Protease (Human immunodeficiency virus 1, UniProt Q9YQ12, V82A). The experiment can be described thus: Inhibition of HIV-1 protease V82A mutant.
The target in experiment [5] is Protease (Human immunodeficiency virus 1, UniProt Q9YQ12, G48V). The experiment can be described thus: Inhibition of HIV-1 protease G48V mutant.
In experiment [6] the target is Carbonic anhydrase. Put plainly: Inhibition of carbonic anhydrase (unknown origin). Type of experiment: protein assay, Homo sapiens.
Experiment [7] deals with Telomerase reverse transcriptase (Homo sapiens, UniProt O14746). Put plainly: Inhibition of telomerase activity in human A2780 cells incubated for 10 mins by SYBR Green 1 staining based TRAP assay. Type of experiment: cell-based.
For experiment [8], the target named is T1, Tyrosinase (Agaricus bisporus, UniProt O42713).
T1 sequence (O42713 whole entry): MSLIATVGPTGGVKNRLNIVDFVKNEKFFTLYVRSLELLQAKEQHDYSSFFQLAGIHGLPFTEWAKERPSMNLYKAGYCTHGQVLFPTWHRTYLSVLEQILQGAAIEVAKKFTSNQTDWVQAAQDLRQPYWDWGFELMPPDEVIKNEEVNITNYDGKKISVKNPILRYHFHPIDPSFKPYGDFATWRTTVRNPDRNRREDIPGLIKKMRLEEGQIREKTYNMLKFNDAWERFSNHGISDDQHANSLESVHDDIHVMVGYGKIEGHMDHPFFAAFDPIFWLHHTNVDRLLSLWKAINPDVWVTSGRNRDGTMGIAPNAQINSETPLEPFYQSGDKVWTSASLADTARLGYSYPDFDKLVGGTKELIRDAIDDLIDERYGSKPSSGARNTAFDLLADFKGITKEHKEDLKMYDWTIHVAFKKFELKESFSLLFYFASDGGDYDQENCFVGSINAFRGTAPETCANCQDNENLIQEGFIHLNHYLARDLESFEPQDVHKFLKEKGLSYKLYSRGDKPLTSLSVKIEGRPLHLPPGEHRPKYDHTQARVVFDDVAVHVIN
The experiment can be described thus: Inhibition of mushroom tyrosinase using L-DOPA as substrate.

In experiment [9] the target is D-amino-acid oxidase (Homo sapiens, UniProt P14920). Put plainly: Inhibition of human DAO.

pEC50, pIC50, pKi: −log10 of the molar value. Where a SMILES comes first, the peptide text is derived from it.

Chain of Telomerase reverse transcriptase (O14746 whole entry): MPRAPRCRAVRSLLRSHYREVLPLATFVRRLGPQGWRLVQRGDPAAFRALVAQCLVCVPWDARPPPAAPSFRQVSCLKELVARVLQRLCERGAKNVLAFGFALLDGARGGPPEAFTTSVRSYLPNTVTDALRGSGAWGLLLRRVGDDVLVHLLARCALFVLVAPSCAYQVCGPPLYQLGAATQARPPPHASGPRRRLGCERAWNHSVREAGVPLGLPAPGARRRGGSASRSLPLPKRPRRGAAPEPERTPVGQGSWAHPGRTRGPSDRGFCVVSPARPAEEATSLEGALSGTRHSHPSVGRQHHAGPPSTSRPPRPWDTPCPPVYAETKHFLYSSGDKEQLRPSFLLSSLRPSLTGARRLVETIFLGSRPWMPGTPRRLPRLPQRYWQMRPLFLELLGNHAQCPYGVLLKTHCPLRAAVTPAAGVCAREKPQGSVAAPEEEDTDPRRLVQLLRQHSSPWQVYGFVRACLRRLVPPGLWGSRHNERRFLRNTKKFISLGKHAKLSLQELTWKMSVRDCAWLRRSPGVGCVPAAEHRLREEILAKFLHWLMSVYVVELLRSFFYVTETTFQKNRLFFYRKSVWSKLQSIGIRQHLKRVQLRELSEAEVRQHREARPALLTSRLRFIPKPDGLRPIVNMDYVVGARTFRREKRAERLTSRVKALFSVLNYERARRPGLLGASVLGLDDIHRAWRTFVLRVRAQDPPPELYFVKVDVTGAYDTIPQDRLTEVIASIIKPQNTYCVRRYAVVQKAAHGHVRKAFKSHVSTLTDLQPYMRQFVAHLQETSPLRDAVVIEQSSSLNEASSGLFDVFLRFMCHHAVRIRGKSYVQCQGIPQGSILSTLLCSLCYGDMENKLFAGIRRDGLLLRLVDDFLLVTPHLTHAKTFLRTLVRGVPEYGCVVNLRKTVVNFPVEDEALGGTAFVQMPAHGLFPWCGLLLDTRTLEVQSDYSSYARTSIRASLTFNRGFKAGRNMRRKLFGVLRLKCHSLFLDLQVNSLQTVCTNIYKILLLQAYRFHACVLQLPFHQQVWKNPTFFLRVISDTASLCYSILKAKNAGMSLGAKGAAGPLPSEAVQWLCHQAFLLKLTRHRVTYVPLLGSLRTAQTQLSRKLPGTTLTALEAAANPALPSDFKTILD
Chain of Signal transducer and activator of transcription 3 (P40763 whole entry): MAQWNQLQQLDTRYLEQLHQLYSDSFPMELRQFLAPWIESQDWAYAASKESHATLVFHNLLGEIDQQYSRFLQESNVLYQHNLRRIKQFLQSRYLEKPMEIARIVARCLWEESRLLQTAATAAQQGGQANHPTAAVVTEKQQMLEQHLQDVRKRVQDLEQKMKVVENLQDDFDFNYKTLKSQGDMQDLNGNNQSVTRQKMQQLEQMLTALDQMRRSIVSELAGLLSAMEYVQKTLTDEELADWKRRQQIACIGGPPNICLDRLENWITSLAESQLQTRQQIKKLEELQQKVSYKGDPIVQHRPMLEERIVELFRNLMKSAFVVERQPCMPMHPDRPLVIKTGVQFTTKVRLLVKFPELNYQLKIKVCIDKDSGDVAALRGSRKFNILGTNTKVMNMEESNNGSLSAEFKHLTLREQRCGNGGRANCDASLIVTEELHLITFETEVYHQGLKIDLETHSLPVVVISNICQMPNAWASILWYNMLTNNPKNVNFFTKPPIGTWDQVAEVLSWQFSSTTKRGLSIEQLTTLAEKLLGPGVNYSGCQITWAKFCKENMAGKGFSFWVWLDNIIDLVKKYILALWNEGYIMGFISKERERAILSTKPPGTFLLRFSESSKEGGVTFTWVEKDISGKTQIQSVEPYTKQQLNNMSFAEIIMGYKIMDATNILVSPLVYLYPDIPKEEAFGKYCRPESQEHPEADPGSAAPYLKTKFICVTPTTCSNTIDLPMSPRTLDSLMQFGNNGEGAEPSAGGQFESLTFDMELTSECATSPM
Chain of Protease (Human immunodeficiency virus 1, UniProt Q9YQ12, G48V) (Q9YQ12 entry or part of it G48V): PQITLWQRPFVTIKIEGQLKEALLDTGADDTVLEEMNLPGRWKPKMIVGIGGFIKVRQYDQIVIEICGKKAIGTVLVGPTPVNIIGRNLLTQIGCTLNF
Chain of Protease (Human immunodeficiency virus 1, UniProt Q9YQ12) (Q9YQ12 whole entry): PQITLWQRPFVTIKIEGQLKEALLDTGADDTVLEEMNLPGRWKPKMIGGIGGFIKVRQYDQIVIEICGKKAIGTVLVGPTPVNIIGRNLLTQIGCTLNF
Chain of Protease (Human immunodeficiency virus 1, UniProt Q9YQ12, V82A) (Q9YQ12 entry or part of it V82A): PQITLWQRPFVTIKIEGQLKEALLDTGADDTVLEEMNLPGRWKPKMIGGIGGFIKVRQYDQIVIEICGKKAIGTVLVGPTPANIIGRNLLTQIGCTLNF
Chain of Protease (Human immunodeficiency virus 1, UniProt Q9YQ12, V82F) (Q9YQ12 entry or part of it V82F): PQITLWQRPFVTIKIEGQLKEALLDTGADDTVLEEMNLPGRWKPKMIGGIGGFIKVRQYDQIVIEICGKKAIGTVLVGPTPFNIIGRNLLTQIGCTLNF
Chain of D-amino-acid oxidase (P14920 whole entry): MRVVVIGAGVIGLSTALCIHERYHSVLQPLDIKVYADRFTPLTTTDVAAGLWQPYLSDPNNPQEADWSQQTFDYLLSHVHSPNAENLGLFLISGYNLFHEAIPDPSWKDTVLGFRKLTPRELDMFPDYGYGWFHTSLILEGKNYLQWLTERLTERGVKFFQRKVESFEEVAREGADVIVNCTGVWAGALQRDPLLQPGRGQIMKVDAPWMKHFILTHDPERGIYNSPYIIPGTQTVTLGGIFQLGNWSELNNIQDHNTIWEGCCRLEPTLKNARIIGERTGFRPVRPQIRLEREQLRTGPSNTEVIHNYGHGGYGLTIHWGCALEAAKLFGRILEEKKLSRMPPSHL

By pKi is commonly meant the negative decadic logarithm of the Ki, by convention in mol/L. `COC(=O)[C@H](CCCCN)NC(=O)[C@@H](NC(=O)[C@@H](CCCCN)NC(=O)[C@@H](NC(=O)[C@@H](Cc1ccc(OP(=O)(O)O)cc1)NC(C)=O)C(C)C)[C@@H](C)O`: in experiment [1], the pKi was 4.66. As to `COc1ccc(S(=O)(=O)N(CC(C)C)C[C@H](O)[C@@H](Cc2ccccc2)n2cc(COC(=O)N[C@H]3c4ccccc4C[C@H]3O)nn2)cc1`, the pKi in experiment [2], in [3], in [4] and in [5] was 8.77 each time. Broadly, the Ki is a measure of affinity in units of concentration, obtained from inhibition or displacement. A low value points to a stronger hold on the target. As to `CC(C)[C@H](C(=O)NCc1ccccc1)n1cc(-c2ccc(S(N)(=O)=O)cc2)nn1`, in experiment [6], the Ki amounted to 0.0002 µM. What is called pEC50 is the EC50 on a negative log10 scale, so that one unit is a factor of ten. Higher therefore signals a small EC50. Take `CCN(CC)CCC(=O)Nc1ccc(-n2cc(-c3cccc(-c4cn(-c5ccc(NC(=O)CCN(CC)CC)cc5)nn4)c3)nn2)cc1`: the negative logarithm of the EC50 (pEC50) in [7] is 4.63. What is called pIC50 is the negative decadic logarithm of the IC50, by convention in mol/L. Read a high pIC50 as a small IC50. Consider `CC(C)[C@H]1C(=O)N2CCC[C@H]2c2cn(nn2)[C@@H](Cc2ccc(OCc3ccccc3)cc2)C(=O)N2CCC[C@H]2c2cn1nn2`, for which the negative-log IC50 (pIC50) in [8] is 2.80. Consider `CC(C)[C@@H]1NC(=O)[C@@H]2CCCN2C(=O)[C@H](Cc2ccc(OCc3ccccc3)cc2)n2cc(nn2)[C@@H]2CCCN2C1=O`, for which the negative-log IC50 (pIC50) in experiment [8] is 3.30.

`O=C(CCN1CCCC1)Nc1ccc(-n2cc(-c3cccc(-c4cn(-c5ccc(NC(=O)CCN6CCCC6)cc5)nn4)c3)nn2)cc1` gave a negative logarithm of the EC50 (pEC50) in [7] of 4.88. On the same count and under the same terms, as for `O=C(CCN1CCCCC1)Nc1ccc(-n2cc(-c3cccc(-c4cn(-c5ccc(NC(=O)CCN6CCCCC6)cc5)nn4)c3)nn2)cc1`, the figure is 4.77. Take `COC(=O)/C(Cc1ccc(O)cc1)=N\OCCc1cn(CC(=O)NC(Cc2ccccc2)C(=O)O)nn1` (stereo not given): the pKi in experiment [9] was 3.00. The compound `NS(=O)(=O)c1ccc(-c2cn([C@H](Cc3ccccc3)C(=O)NCCc3ccsc3)nn2)cc1` came in with a Ki in [6] of 0.0002 µM.

Consider `CC(=O)N[C@H](Cc1ccc(OP(=O)(O)O)cc1)C(=O)N[C@@H](C(=O)N[C@@H]1CCCCn2cc(nn2)C[C@H](C(=O)N[C@@H](Cc2ccccc2)C(N)=O)NC(=O)[C@H]([C@@H](C)O)NC1=O)C(C)C`, for which the pKi in [1] is 5.14. `CC(C)[C@@H]1NC(=O)[C@@H]2CCCN2C(=O)[C@H](Cc2ccc(O)cc2)NC(=O)[C@@H]2CCCN2C1=O` (cyclo(PVPY)) gave a negative-log IC50 (pIC50) in experiment [8] of 2.82.
